{"source": "patent US20210353749A1", "about": "“GUANABENZ AS AN ADJUVANT FOR IMMUNOTHERAPY” (UNIVERSITÉ CATHOLIQUE DE LOUVAIN, priority 2018, published 2021)", "key": {"[1]": {"tested_on": "TiRP tumor", "assay": "TiRP melanoma model with adoptive cell transfer of activated P1A-specific CD8+ T cells", "format": "in vivo, mouse", "from_the_text": "TiRP mice: TiRP mice have been created by crossing Ink4a/Arf^flox/flox mice with mice carrying a transgenic construct controlled by the tyrosinase promoter and driving the expression of H-Ras^12V and Trap1a which encodes a MAGE-type tumor antigen P1A; the promoter is separated from the coding region by a stop cassette made of a floxed self-deleting CreER (Huijbers et al., 2006, Cancer Res 66, 3278-3286). Those mice were backcrossed to a B10.D2 background and bred to homozygosity. TCRP1A mice heterozygous for the H-2Ld/P1A35-43-specific TCR transgene were kept on the B10.D2; Rag1^−/− background (Shanker et al., 2004, J Immunol 172, 5069-5077). All mice used in this study were produced under specific pathogen free (SPF) conditions at the animal facility of the Ludwig Institute for Cancer Research. All the rules concerning animal welfare have been respected according to the 2010/63/EU Directive. All procedures were performed with the approval of the local Animal Ethical Committee, with reference 2015/UCL/MD/15.\nA fresh solution of 40H-Tamoxifen was prepared by dissolving 40H-Tamoxifen (Imaginechem) in 100% ethanol and mineral oil (ratio 1:9) followed by 30-min sonication, and injected subcutaneously (2 mg/200 μL per mouse) in the neck area of gender-matched 7 weeks old TiRP mice. Tumor appearance was monitored daily and tumors were measured three times/week. Tumor volume (in mm^3) was calculated by the following formula: Volume=width^2×length/2. Tumor-bearing TiRP mice were randomized based on the tumor size when average volume was 400 mm^3, 500 mm^3 or 1000 mm^3 as indicated.\nT cells were incubated with guanabenz (10, 20, or 40 μM) for 16 h to 24 h as indicated. Mice received a daily intra-peritoneal injection of guanabenz (5 mg/kg) or vehicle (PBS) from the day of randomization (and the day of ACT when applicable) until the day of sacrifice.\nFor the adoptive cell transfer (ACT), P1A-specific (TCRP1A) CD8^+ T cells were isolated from spleens and lymph nodes of TCRP1A mice as described hereinabove, and stimulated in vitro by co-culture with irradiated (10.000 rads) L1210-P1A-B7.1 cells (Gajewski et al., 1995, J Immunol 154, 5637-5648) at 1:2 ratio (0.5×10^5 CD8^+ T cells and 10^5 L1210-P1A-B7.1 cells per well in 48-well plates) in IMDM (GIBCO) containing 10% fetal bovine serum supplemented with L-arginine (0.55 mM, Merck), L-asparagine (0.24 mM, Merck), glutamine (1.5 mM, Merck), betamercaptoethanol (50 μM, Sigma), 50 UmL^−1 penicillin and […] (Life Technologies). Four days later, TCRP1A CD8^+ T cells were purified on a Lymphoprep gradient (StemCell) and 10^7 living cells were injected intravenously in 200 μL PBS in TiRP-tumor bearing mice on the day of randomization.\nMice received a daily intra-peritoneal injection of alprenolol (5 mg/kg) or vehicle (PBS) from the day of ACT until the day of sacrifice.\nT cells were incubated with sunitinib (0.1, 0.3, 0.8, 2.5 or 4 μM) for 16 h as indicated. Mice received a daily dose of sunitinib (20 mg/kg) or vehicle (PBS) by oral gavage from the day of ACT until the day of sacrifice."}, "[2]": {"tested_on": "P1A-antigen specific CD8+ T cells", "assay": "Immunization with irradiated L1210-P1A-B7.1 tumor cells", "format": "in vivo, DBA/2 mice", "details": "100 μg (5 mg/kg) guanabenz with vaccine, vs negative control and immunization alone", "procedure": "Immunization with irradiated L1210-P1A-B7.1 tumor cells: DBA/2 mice received a vaccine consisting of 1 million irradiated L1210-P1A-B7.1 cells expressing the P1A antigen either alone or with 100 μg (5 mg/kg) guanabenz. When administered, guanabenz was given 1 hour before the immunization and daily after the immunization.\nTetramer staining: one week after the immunization, the spleen of each mouse was collected. Isolated splenocytes from the immunized mice were cultured and restimulated with L1210-P1A-B7.1 cells at a ratio of 1:1. Four days after restimulation, P1A-antigen specific CD8^+ T cells were stained with PE-conjugated P1A tetramer and APC-conjugated anti-CD8 antibody.\nInterferon gamma secretion: one week after the immunization, the spleen of each mouse was collected. Splenocytes from the immunized mice were restimulated with L1210-P1A-B7.1 cells at a ratio of 1:1. Four days after restimulation, the splenocytes were collected and plated at 50,000 cells per well in 96 U plate. L1210-P1A-B7.1 cells were added to each well as target cells at a ratio of 1:1. The plate was then incubated at 37° C. overnight. At the end of the incubation, the supernatant from the cells were collected and the amount of secreted IFNγ was measured by ELISA according to the manufacturer's instruction (R&D). […]"}, "[3]": {"tested_on": "B16F10 melanoma tumors", "assay": "B16F10 transplanted melanoma model", "format": "in vivo, mouse", "details": "guanabenz alone, 2.5 mg/kg i.p. daily from 7 days after inoculation, vs PBS and isotype; FIG. 9", "procedure": "Gender and age matched CD57BL/6 wild-type mice were used in the B16F10 transplanted melanoma model.\nGender-matched, 7-9 weeks old CD57BL/6 wild-type mice were subcutaneously injected with 1 million of B16F10 tumor cells. Mice were randomized based on the tumor size one week after the injection of tumor cells. 7 days after tumor inoculation, daily injections of guanabenz (2.5 mg/kg, i.p.) or vehicle (PBS, i.p.) were administered to the mice. Mice then received 4 injections (intraperitoneally also referred to as i.p.) of a dose of 200 μg/mouse anti-PD-1 antibody (BioXcell, clone RMP1-14) or RatIgG2a isotype (clone 2A3, Bio-X-Cell) at 3-day intervals starting 1 day after guanabenz or vehicle administration."}}}
{"smiles": "NC(N)=N/N=C/c1c(Cl)cccc1Cl", "note": "[guanabenz, 2-[(E)-(2,6-dichlorophenyl)methylideneamino]guanidine]", "values": [{"measurement": "tumor growth", "setting": "[1]; guanabenz 5 mg/kg i.p. daily with ACT of 10 million activated T cells, day 0 to day 18, vs ACT alone, FIG. 5A", "result": "significantly decreased"}, {"measurement": "tumor infiltration of CD8+ T cells (P1A tetramer+ CD8+ T cells among total living cells and among total CD8+ T cells)", "setting": "[1]; guanabenz 5 mg/kg i.p. daily with ACT, 10 days after ACT, FIG. 5C-D", "result": "increased"}, {"measurement": "apoptosis of the adoptively transferred CD8+ T cells", "setting": "[1]; guanabenz 5 mg/kg i.p. daily with ACT, 10 days after ACT, FIG. 5E", "result": "reduced"}, {"measurement": "percentage of CD69+ P1A-specific CD8+ T cells (T cell activation marker)", "setting": "[1]; guanabenz 5 mg/kg i.p. daily with ACT, 10 days after ACT, FIG. 5F", "result": "increased percentage"}, {"measurement": "tumor weight on the day of sacrifice", "setting": "[1]; guanabenz 5 mg/kg i.p. daily with ACT, day 18, vs ACT alone, FIG. 5B", "result": "significantly decreased"}, {"measurement": "splenocyte IFNγ secretion (ELISA)", "setting": "[2]; activation with L1210-P1A-B7.1 cells, FIG. 7B", "result": "significant increase"}, {"measurement": "percentage of P1A-antigen specific CD8+ T cells among total CD8+ T cells after restimulation with the P1A-antigen", "setting": "[2]; splenocytes one week after immunization, FIG. 7A", "result": "significant increase"}, {"measurement": "growth of B16F10 melanoma tumors", "setting": "[3]", "result": "did significantly reduce"}]}
